Common to all, as to format: biochemical
The nature of assay [1]: Diphenyl-picryl-hydrazyl (DPPH) scavenging activity. The note with it: concentration needed to scavenge DPPH by 50%; EGCG moiety concentration for EGCG-containing samples, n = 3. The procedure: Diphenyl-picryl-hydrazyl scavenging activity: Different amounts of a sample were mixed with the chemically stable free radical 1,1-diphenyl-2-picryl-hydrazyl (DPPH) solution and absorbance at 519 nm was continuously recorded for 30 min at 25° C. using a UV-visible spectrophotometer (JASCO V-510 UV/VIS/NIR spectrometer, Japan). All analyses were run in triplicate and the results were averaged.
Diphenyl-picryl-hydrazyl scavenging activity and Superoxide anion scavenging activity: The 1,1-diphenyl-2-picryl-hydrazyl radical (DPPH) assay, which measures hydrogen atom donating activity, provides an evaluation of antioxidant activity due to free radical scavenging. DPPH, a purple-coloured stable free radical, is reduced into the yellow-coloured diphenylpicry hydrazine, as the radical is scavenged by antioxidants through donation of hydrogen. […] The DPPH scavenging activity of samples was expressed by IC50 (the concentration needed to scavenge DPPH by 50%), as shown in Table 4. […] These activities were also much higher than those of commercial antioxidants, vitamin C and dibutylhydroxytoluen (BHT).

Assay [2] is described as follows: Superoxide anion scavenging activity (xanthine/XO, NBT reduction method). The note with it: concentration needed to scavenge superoxide anion by 50%; EGCG moiety concentration for EGCG-containing samples, n = 3; read-out: Superoxide radical scavenging activity IC50. The procedure: Superoxide anion scavenging activity: Superoxide anion was generated using xanthine and xanthine oxidase (XO), and measured by the nitroblue tetrazolium (NBT) reduction method. A test sample was mixed in a buffer solution (pH 7.0) containing xanthine and NBT at 25° C. Measurement began with the addition of XO. […] All analyses were run in triplicate and the results were averaged. Superoxide scavenging activity was calculated according to the following formula: […] A mixture of xanthine and XO generates superoxide anion, which reduces nitroblue tetrazolium (NBT) to give the blue chromogen formazan and increases UV absorbance at 560 nm. Compounds capable of scavenging superoxide anion, such as superoxide dismutase (SOD), inhibit NBT reduction. […] Since compounds capable of scavenging superoxide anion can also affect NBT reduction, samples were investigated for their effects on these processes. […] Evaluation of scavenging activity against DPPH and superoxide anion provided direct evidence of the free radical scavenging potential of those compounds.

The target of another assay is T1, Xanthine oxidase (XO) (Bos taurus, UniProt P80457).
T1 construct: purchased Sigma-Aldrich
The assay is described as follows: Xanthine oxidase inhibitory activity (uric acid formation at 295 nm). The note with it: for XO inhibition activity: 10 μM of samples. The protocol: Xanthine oxidase inhibitory activity: The activity of XO was measured spectrophotometrically by monitoring the formation of uric acid at 295 nm for 30 min using a UV-visible spectrometer. The assay was carried out under the same conditions as the superoxide anion assay, and the percentage activity was calculated.

The next assay concerns the target Urokinase (uPA) (Homo sapiens, UniProt P00749). Nature of the assay: uPA inhibitory activity (SPECTROZYME UK). The note with it: over a range of tested concentrations, EGCG-unit concentration (FIG. 8).
Assay [3] deals with T2, Xanthine Oxidase from buttermilk (Bos taurus, UniProt P80457).
T2 construct: Xanthine Oxidase from buttermilk, Wako Chemical; purchased Wako Chemical; host or cells: buttermilk
Nature of the assay: Xanthine oxidase activity upon complexation with OEGCG and recovery with Triton X-100. The note with it: highest OEGCG concentration. The procedure: XO activity was measured by determining uric acid production in a UV-vis spectrophotometer at 295 nm. The increase in absorbance due to the conversion of xanthine to uric acid was followed for 3 minutes. […] Activity was measured according to the specified method for each protein. Activity for all proteins is calculated with the following equation: [formula] where ΔAbssample is the change in absorbance over time with the test compound and ΔAbscontrol is the change in absorbance over time without the test compound.

In assay [4] the target is T3, α-Amylase from Apergillus oryzae (Aspergillus oryzae, UniProt P0C1B3).
T3 construct: α-Amylase from Apergillus oryzae, Fluka; purchased Fluka; host or cells: Aspergillus oryzae
The assay is described as follows: α-Amylase activity upon complexation with OEGCG and recovery with Triton X-100. The protocol: α-Amylase from Apergillus oryzae, Fluka. Amylase activity was assayed with an activity kit from Molecular Probes (E-11954) using a fluorescence spectrophotometer with excitation wavelength at 505 nm and emission wavelength at 512 nm. […] Fluorescence was monitored over a period of 3 minutes.
(§1) Activity was measured according to the specified method for each protein.
(§2) Activity for all proteins is calculated with the following equation:
(§3) [formula] where ΔAbssample is the change in absorbance over time with the test compound and ΔAbscontrol is the change in absorbance over time without the test compound.

The target in assay [5] is T4, Catalase from bovine liver (Bos taurus, UniProt P00432).
T4 construct: Catalase from bovine liver, Sigma Chemical; purchased Sigma Chemical; host or cells: bovine liver
T4 sequence (P00432 2-527 limits assumed): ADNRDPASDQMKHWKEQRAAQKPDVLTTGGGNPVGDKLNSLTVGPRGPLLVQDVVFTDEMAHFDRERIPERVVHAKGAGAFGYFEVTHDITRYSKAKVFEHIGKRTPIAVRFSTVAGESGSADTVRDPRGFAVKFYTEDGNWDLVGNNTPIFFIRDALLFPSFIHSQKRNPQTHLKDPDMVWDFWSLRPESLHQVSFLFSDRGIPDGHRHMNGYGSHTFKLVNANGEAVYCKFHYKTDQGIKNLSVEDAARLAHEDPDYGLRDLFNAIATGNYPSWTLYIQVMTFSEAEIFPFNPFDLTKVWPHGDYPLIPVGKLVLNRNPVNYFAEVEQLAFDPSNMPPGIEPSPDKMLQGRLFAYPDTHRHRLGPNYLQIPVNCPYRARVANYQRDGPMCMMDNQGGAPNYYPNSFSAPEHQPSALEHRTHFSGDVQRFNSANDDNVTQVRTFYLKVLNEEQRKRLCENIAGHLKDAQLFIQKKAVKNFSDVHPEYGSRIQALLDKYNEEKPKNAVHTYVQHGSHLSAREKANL
The assay is described as follows: Catalase activity upon complexation with OEGCG and recovery with Triton X-100. The procedure:
Catalase from bovine liver, Sigma Chemical. Catalase activity was measured by the disappearance of H2O2, followed at 240 nm in a UV-Vis spectrophotometer over a period of 200s. […] The reaction was started by adding 0.507 M H2O2 and mixing for 25 s.
as §1, §2, §3

A further assay concerns the target T5, Lysozyme from egg white (Gallus gallus, UniProt P00698).
T5 construct: Lysozyme from egg white, Sigma Chemical; purchased Sigma Chemical; host or cells: egg white
The assay is described as follows: Lysozyme activity upon complexation with OEGCG and recovery with Triton X-100. The procedure:
Lysozyme from egg white, Sigma Chemical. Activity of lysozyme was determined spectrophotometically at 450 nm by the decrease in turbidity over time due to the cleavage of glucosidic linkages of Micrococcus lysodeikticus. […] To start the reaction, 0.25 mg/mL of Micrococcus lysodeikticus was added to the solution.
as §1, §2, §3

Assay [6] is described as follows: ABTS radical scavenging activity. The note with it: dissociation (FIG. 27). The protocol: Radical scavenging activity: ABTS^.+ was prepared by mixing a 7 mM ABTS stock solution with 2.45 mM potassium persulfate ((1/1, v/v). The decolorization reaction was initiated by adding ABTS^.+ to samples in a phosphate buffer and immediately measured at 734 nm using a UV-Vis spectrophotometer (Hitachi, Japan).

Where [7] appears, read: addition of TX-100 after complexation with OEGCG.

T1 sequence (P80457 2-1332 limits assumed): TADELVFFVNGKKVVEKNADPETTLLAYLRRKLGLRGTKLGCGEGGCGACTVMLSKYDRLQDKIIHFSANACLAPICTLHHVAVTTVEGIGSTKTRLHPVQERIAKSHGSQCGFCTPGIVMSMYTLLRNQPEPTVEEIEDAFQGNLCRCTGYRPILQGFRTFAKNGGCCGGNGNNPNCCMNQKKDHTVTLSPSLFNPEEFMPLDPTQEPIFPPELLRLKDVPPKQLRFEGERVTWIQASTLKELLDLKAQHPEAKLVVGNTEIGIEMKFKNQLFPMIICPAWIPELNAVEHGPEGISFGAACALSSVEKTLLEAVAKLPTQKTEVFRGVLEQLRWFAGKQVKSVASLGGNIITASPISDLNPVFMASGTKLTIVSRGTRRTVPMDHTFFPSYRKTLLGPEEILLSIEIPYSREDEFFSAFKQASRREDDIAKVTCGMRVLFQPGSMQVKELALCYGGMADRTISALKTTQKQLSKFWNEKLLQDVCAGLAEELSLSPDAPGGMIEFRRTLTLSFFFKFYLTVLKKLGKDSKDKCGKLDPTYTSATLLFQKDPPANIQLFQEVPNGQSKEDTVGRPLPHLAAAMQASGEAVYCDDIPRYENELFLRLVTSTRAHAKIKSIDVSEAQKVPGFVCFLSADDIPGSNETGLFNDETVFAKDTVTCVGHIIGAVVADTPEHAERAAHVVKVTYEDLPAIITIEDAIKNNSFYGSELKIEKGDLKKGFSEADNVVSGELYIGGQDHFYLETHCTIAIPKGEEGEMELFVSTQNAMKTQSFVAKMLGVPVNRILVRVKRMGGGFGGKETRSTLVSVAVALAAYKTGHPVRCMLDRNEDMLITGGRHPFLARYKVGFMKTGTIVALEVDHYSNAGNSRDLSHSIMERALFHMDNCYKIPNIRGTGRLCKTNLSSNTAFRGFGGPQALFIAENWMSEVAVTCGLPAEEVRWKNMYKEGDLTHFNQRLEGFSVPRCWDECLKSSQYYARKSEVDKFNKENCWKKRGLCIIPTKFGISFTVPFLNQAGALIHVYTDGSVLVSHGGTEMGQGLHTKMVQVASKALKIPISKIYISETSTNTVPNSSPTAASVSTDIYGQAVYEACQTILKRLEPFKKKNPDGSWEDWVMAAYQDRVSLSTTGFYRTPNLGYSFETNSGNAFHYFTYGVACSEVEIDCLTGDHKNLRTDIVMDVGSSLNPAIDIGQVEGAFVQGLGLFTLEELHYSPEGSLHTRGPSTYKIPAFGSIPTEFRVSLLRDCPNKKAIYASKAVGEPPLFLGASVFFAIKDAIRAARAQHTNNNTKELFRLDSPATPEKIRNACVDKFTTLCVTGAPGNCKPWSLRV
T5 sequence (P00698 19-147): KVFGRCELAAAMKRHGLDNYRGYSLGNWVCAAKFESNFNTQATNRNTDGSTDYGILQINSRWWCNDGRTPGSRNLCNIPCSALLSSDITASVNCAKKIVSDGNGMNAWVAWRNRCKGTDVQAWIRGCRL
T2 sequence (P80457 whole entry): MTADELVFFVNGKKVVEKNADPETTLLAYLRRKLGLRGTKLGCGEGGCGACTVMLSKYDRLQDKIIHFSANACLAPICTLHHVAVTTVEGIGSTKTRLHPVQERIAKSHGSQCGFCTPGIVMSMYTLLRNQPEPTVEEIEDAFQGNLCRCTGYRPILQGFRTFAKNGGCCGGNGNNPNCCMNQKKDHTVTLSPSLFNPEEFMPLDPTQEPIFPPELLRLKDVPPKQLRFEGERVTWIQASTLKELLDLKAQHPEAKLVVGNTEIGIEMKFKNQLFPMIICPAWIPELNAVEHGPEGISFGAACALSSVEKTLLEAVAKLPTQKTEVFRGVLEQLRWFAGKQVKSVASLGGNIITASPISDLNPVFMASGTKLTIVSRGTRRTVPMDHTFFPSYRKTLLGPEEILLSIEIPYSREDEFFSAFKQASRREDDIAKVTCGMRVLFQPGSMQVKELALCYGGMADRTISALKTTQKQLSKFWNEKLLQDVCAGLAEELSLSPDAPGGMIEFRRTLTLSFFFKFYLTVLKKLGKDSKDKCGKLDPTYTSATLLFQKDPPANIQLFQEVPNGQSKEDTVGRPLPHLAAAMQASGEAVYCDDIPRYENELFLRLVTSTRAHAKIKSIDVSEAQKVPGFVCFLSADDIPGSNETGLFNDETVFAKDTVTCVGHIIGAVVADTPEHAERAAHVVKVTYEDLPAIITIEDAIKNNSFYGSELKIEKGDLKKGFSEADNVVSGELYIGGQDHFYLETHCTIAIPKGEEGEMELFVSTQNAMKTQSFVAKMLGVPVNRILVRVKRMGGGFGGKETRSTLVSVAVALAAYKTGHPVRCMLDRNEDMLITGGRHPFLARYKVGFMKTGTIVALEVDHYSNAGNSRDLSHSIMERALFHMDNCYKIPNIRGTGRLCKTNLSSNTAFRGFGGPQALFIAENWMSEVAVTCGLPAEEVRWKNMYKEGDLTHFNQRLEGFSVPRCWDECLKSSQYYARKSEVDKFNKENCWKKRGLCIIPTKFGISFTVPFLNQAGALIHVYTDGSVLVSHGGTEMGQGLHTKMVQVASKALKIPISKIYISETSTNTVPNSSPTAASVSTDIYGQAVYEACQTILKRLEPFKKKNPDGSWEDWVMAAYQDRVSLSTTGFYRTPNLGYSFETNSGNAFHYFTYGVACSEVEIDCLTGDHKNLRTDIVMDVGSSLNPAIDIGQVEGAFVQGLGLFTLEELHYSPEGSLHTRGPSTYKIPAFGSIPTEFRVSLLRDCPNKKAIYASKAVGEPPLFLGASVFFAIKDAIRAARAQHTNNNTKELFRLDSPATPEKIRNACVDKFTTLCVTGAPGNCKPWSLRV
Description for Urokinase (uPA): uPA inhibitory activity: Various amounts of a sample were mixed with uPA in a buffer solution, and incubated for 15 min at 37° C. The mixture solution was added with SPECTROZYME™ and absorbance at 405 nm was recorded for 10 min using a microplate reader.

Broadly, the IC50 is the midpoint of a concentration-inhibition curve. Regarding `Cc1cc(C(C)(C)C)c(O)c(C(C)(C)C)c1` [BHT, dibutylhydroxytoluen, reference compound], the IC50 in [1] and in [2] was above 250 µM throughout.
As for `O=C1O[C@H]([C@@H](O)CO)C(O)=C1O` [Vitamin C, reference compound], the IC50 in assay [1] amounted to 44.7 ± 0.4 µM; in assay [2], 30.3 ± 0.3 µM.
As usually defined, the inhibition is the percentage by which the read-out fell short of the control. Consider `Oc1ncnc2[nH]ncc12` [allopurinol, reference compound], for which the inhibition at 10 µM at Xanthine oxidase (XO) (read-out: XO inhibition activity) worked out at 22.6%.
Turning to “(−)-Epigallocatechin gallate [EGCG, reference compound]”, the IC50 was 7.3 ± 0.6 µM in [1] and 2.9 ± 0.3 µM in assay [2]. This compound had an XO inhibition activity on Xanthine oxidase (XO) of 1.2%. For the same compound, at Xanthine oxidase (XO) (over the range of concentrations tested), the XO inhibition entry is “less than 5%”. Further, the uPA inhibition activity entry at Urokinase (uPA) is listed as “very low uPA inhibition activity”.
Take “PEG-epigallocatechin gallate conjugate [PEG-EGCG]”: the IC50 is 6.2 ± 0.3 µM in assay [1] and 0.9 ± 0.1 µM in assay [2]. Also, the XO inhibition activity at Xanthine oxidase (XO) came out at 30.7%. The uPA inhibition activity result at Urokinase (uPA) is listed as “higher inhibition activities”.
Regarding “PEG-oligomeric epigallocatechin gallate [PEG-OEGCG]”, the IC50 came out at 3.8 ± 0.8 µM in [1] and 0.4 ± 0.1 µM in assay [2]. This compound showed an XO inhibition activity at Xanthine oxidase (XO) of 100%. Moreover, the uPA inhibition activity entry on Urokinase (uPA) is given as “higher inhibition activities”.
As for “oligomeric epigallocatechin gallate [OEGCG]”, the results for the half-maximal inhibitory concentration (IC50) in assay [1] and in assay [2] were 4.9 ± 0.5 µM and 1.1 ± 0.2 µM, respectively. Also, at Xanthine oxidase (XO), the XO inhibition activity is on record as 89.3%. Moreover, the uPA inhibition activity result at Urokinase (uPA) is reported as “higher inhibition activities”. Further, the “suppression of total XO activity” value in assay [3] amounted to 75%. In assay [4], the “maximum inhibition of α-amylase” value is recorded as “about 94%”. Also, the “initial α-amylase activity inhibition” value in [4] (OEGCG below a ratio of one) is on record as 70%. The “α-amylase activity restored, % of the initial protein activity” value in [4] (setting [7]) is “approximately 100%”. Besides, the “decrease in α-amylase activity” value in assay [4] (five fold increase in OEGCG concentration from a ratio of 1 to 5) came to 20%. Also, the “further decrease of catalase activity” value in [5] (five fold increase in OEGCG concentration beyond OEGCG to protein ratio of 1) was “about 6%”. Also, the inhibition of catalase in [5] (highest OEGCG to protein ratio) came to 30%. The inhibition of lysozyme result on Lysozyme from egg white (above an OEGCG ratio of 2) is “All activity was suppressed”. In addition, the “lysozyme activity restored, % of the initial protein activity” value at Lysozyme from egg white (setting [7]) was “approximately 100%”. In addition, the “ABTS radical scavenging activity upon complexation with proteins and dissociation” value in assay [6] is reported as “suppressed by complexation with proteins was restored upon dissociation”.

The values above are taken from patent publication US8410165B2, “Aldehyde conjugated flavonoid preparations” (Agency for Science, Technology and Research, priority 2005, dated 2013).
